# According to patent US20190308994A1, “Topical Pharmaceutical Formulations For Treating Inflammatory-Related Conditions” (Anacor Pharmaceuticals, Inc., priority 2015, published 2019):
# Like-named read-outs stand apart in the source and are kept apart here.
# Legend:
# [1] = Equilibrium solubility of crisaborole in solvents by HPLC; assay type: physicochemical; settings: thermodynamic from solid, read-out: Solubity by HPLC
# Protocol: (§1) One of the key aspects encountered in reformulating crisaborole was that the active agent be fully dissolved within its solvent. A selection criterion of greater than 10% w/w crisaborole solubility was used to select solvents capable of carrying at least 1% crisaborole in a final drug product formulation, assuming the drug product contained 10% solvent. The solubility of crisaborole in ten solvents was evaluated to identify those with crisaborole solubility greater than 10% w/w by visual assessment. The equilibrium solubility of the best solvents was subsequently verified by HPLC.
# [2] = Solubility of crisaborole in solvents by visual assessment; assay type: physicochemical
# Protocol: as §1
compound,measurement,setting,value
"N#Cc1ccc(Oc2ccc3c(c2)COB3O)cc1 [Crisaborole Form II, 5-(4-cyanophenoxy)-1,3-dihydro-1-hydroxy-2,1-benzoxaborole]",solubility,"[1]; oil or lipid, in Ethylhexyl Hydroxystearate",21 mg/mL
same,solubility,"[1]; oil or lipid, in Oleyl Alcohol, NF",33 mg/mL
same,solubility,"[1]; organic solvent or mixture, in Hexylene Glycol, NF",356 mg/mL
same,solubility,"[1]; organic solvent or mixture, in Polyethylene Glycol (PEG) 400, USP",164 mg/mL
same,solubility,"[1]; organic solvent or mixture, in Propylene Carbonate, NF",96 mg/mL
same,solubility,"[1]; organic solvent or mixture, in Propylene Glycol, USP",274 mg/mL
same,solubility,"[1]; organic solvent or mixture, in Transcutol P, NF",21.2 mg/mL
same,Visual Solubity,[2]; in Diisopropyl Adipate,7.7% w/w
same,Visual Solubity,[2]; in Ethylhexyl Hydroxystearate,1.6% w/w
same,Visual Solubity,"[2]; in Hexylene Glycol, NF",25.9% w/w
same,Visual Solubity,"[2]; in Isopropyl Myristate, NF",0.6% w/w
same,Visual Solubity,"[2]; in Oleic Acid, NF",<0.1% w/w
same,Visual Solubity,"[2]; in Oleyl Alcohol, NF",2.3% w/w
same,Visual Solubity,"[2]; in Polyethylene Glycol (PEG) 400, USP",15.0% w/w
same,Visual Solubity,"[2]; in Propylene Carbonate, NF",9.9% w/w
same,Visual Solubity,"[2]; in Propylene Glycol, USP",24.0% w/w
same,Visual Solubity,"[2]; in Transcutol P, NF",28.6% w/w
